From patent US11084795B2, “CFTR regulators and methods of use thereof” (The Regents of the University of California, priority 2015, dated 2021)
“Also recorded” adds a separate entry of the source. Where two headings read alike, the source gives them in different places. Where a SMILES comes first, the peptide text is derived from it. Bridges are numbered along the chain shown (N, C = ends).

Legend:
[1] = tested on: chronic constipation / IBS-C patients; conditions: linaclotide: chronic constipation; lubiprostone: IBS-C; cited from earlier work
human wildtype CFTR [2] = target: T1, human wildtype CFTR (Homo sapiens, UniProt P13569); test: Short-circuit current (Isc) in FRT cells expressing human wild-type CFTR; conditions: for EC50: FRT cells, short-circuit current; for extent of CFTR activation (Isc): forskolin produced little or no further increase in current
human wildtype CFTR [3] = target: T1, human wildtype CFTR; test: Fluorescence plate reader assay of iodide influx in FRT cells co-expressing CFTR and YFP halide sensor
loperamide-treated mice = test: Loperamide-induced mouse model of constipation
LGE BALB/c mice = test: Lacrimal gland excision (LGE) mouse model of aqueous-deficient dry eye; format: in vivo
Protocol: (§1) To assess corneal epithelial disruption, 5 μL of lissamine green (LG) dye (1%) was applied to the ocular surface of isofluorane-anesthetized mice. Photographs of the eye were taken using a Nikon Digital camera adapted to an Olympus Zoom Stereo Microscope (Olympus, Center Valley, Pa., USA). Each corneal quadrant was scored on a 3-point scale by one blinded, trained observer, with the extent of staining in each quadrant classified as: 0, no staining; 1, sporadic (involving <25% of the total surface) staining; grade 2, diffuse punctate staining (25-75%); and grade 3, coalesced punctate staining (>75%). The total grade is reported as the sum of scores from all four quadrants, ranging from 0 to 12.
A lacrimal gland excision (LGE) model of aqueous-deficient dry eye was adapted from a reported method (30). The extraorbital lacrimal gland was exposed on each side of wild-type female BALB/c mice (7-8 weeks of age) by 3-mm linear skin incisions. Lacrimal ducts were cauterized and the entire gland was removed bilaterally, avoiding facial vessels and nerves. Incisions were each closed with a single interrupted 6-0 silk suture. Orbital lacrimal tissue remained functional. Eyes with reduced corneal sensation (<5% of mice studied), as identified from neurotrophic corneal ulcers within 1 day of LGE, were excluded. Mice were randomized to receive either treatment (in both eyes) with CFTRact-K089 (0.1 nmol) or vehicle. Mice were treated three times daily (8 AM, 2 PM and 8 PM) for 2 weeks starting on Day 1 after LGE. Tear secretion and LG staining were performed immediately prior to, and one hour after the initial dose on day 4, 10 and 14 after LGE.
Lissamine green staining. […] Each corneal quadrant was scored on a 3-point scale by one blinded, trained observer, with the extent of staining in each quadrant classified as: 0, no staining; 1, sporadic (involving <25% of the total surface) staining; grade 2, diffuse punctate staining (25-75%); and grade 3, coalesced punctate staining (≥75%). […]

[4] = tested on: CFTR at the ocular surface; test: Ocular surface potential difference (PD) in living mice; format: in vivo, mouse; conditions: wild-type mice; for change in ocular surface PD: 1-10 μM
Protocol: Open-circuit transepithelial PD were measured continuously in anesthetized mice in response to serial perfusions of different solutions over the ocular surface, as described (21). Mice were anesthetized with Avertin (2,2,2-tribromoethanol, 125 mg/kg intraperitoneal, Sigma-Aldrich, St. Louis, Mo., USA), and core temperature was maintained at 37° C. using a heating pad. Eyes were oriented with the cornea and conjunctiva facing upward and exposed by retracting the eyelid with cross-action forceps. Solutions were isosmolar (320±10 mOsM; compositions provided in ref. 21) and contained 10μ[…] indomethacin to prevent CFTR activation by prostaglandins. The ocular surface was perfused at 6 mL/min through plastic tubing using a multireservoir gravity pinch-valve system (ALA Scientific, Westbury, N.Y., USA) and variable-flow peristaltic pump (medium flow model; Fisher Scientific, Fair Lawn, N.J., USA). A probe catheter was fixed 1 mm above the cornea using a micropositioner and a suction cannula was positioned 3 mm from the orbit. The measuring electrode was in contact to the perfusion catheter and connected to a high-impedance voltmeter (IsoMilivolt Meter; WPI). The reference electrode was grounded via a winged 21-gauge needle filled with isosmolar saline, and inserted subcutaneously in the abdomen. Measuring and reference electrodes consisted of Ag/AgCl with 3 M KCl agar bridges.
An open-circuit potential difference (PD) method developed in our lab was used to evaluate compound activity at the ocular surface in vivo, as depicted in FIG. 3A (21). Cl^− channel function was quantified by measuring PD during continuous perfusion of the ocular surface with a series of solutions that imposed a transepithelial Cl^− gradient and contained various channel agonists and/or inhibitors. The ocular surface was first perfused with isosmolar saline to record the baseline PD. Amiloride was then added to the perfusate, followed by exchange to a low Cl^− solution in which Cl^− with an impermeant anion, gluconate. These maneuvers allow for direct visualization of CFTR activation in response to addition of candidate CFTR activators.
Ocular surface potential difference measurements. Open-circuit transepithelial PD were measured continuously in anesthetized mice in response to serial perfusions of different solutions over the ocular surface, as described (21). Mice were anesthetized with Avertin (2,2,2-tribromoethanol, 125 mg/kg intraperitoneal, Sigma-Aldrich, St. Louis, Mo., USA), and core temperature was maintained at 37° C. using a heating pad. Eyes were oriented with the cornea and conjunctiva facing upward and exposed by retracting the eyelid with cross-action forceps. […]

FRT cells = test: Alamar Blue cytotoxicity assay in FRT cells; format: cell-based, rat; conditions: up to 100 μM, 1 or 24 h
[5] = Compound accumulation in systemic tissues after 14 days topical dosing; format: in vivo, mouse
[6] = Tear film pharmacokinetics (LC/MS of tear washes)
[7] = Ocular toxicity after chronic topical dosing (slit-lamp, lissamine green staining); format: in vivo; conditions: chronically treated mice
Protocol: as §1
as §1, with “Lissamine green staining. To” for “To”, “(≥75%).” for “(>75%).”

tear fluid secretion = format: in vivo, mouse
[8] = wild-type mice, B074 100 μM, J027 and K089 50 μM, VX-770 10 μM, cholera toxin 0.1 μg/mL, forskolin 20 μM, IBMX 250 μM

T1 sequence (P13569 whole entry): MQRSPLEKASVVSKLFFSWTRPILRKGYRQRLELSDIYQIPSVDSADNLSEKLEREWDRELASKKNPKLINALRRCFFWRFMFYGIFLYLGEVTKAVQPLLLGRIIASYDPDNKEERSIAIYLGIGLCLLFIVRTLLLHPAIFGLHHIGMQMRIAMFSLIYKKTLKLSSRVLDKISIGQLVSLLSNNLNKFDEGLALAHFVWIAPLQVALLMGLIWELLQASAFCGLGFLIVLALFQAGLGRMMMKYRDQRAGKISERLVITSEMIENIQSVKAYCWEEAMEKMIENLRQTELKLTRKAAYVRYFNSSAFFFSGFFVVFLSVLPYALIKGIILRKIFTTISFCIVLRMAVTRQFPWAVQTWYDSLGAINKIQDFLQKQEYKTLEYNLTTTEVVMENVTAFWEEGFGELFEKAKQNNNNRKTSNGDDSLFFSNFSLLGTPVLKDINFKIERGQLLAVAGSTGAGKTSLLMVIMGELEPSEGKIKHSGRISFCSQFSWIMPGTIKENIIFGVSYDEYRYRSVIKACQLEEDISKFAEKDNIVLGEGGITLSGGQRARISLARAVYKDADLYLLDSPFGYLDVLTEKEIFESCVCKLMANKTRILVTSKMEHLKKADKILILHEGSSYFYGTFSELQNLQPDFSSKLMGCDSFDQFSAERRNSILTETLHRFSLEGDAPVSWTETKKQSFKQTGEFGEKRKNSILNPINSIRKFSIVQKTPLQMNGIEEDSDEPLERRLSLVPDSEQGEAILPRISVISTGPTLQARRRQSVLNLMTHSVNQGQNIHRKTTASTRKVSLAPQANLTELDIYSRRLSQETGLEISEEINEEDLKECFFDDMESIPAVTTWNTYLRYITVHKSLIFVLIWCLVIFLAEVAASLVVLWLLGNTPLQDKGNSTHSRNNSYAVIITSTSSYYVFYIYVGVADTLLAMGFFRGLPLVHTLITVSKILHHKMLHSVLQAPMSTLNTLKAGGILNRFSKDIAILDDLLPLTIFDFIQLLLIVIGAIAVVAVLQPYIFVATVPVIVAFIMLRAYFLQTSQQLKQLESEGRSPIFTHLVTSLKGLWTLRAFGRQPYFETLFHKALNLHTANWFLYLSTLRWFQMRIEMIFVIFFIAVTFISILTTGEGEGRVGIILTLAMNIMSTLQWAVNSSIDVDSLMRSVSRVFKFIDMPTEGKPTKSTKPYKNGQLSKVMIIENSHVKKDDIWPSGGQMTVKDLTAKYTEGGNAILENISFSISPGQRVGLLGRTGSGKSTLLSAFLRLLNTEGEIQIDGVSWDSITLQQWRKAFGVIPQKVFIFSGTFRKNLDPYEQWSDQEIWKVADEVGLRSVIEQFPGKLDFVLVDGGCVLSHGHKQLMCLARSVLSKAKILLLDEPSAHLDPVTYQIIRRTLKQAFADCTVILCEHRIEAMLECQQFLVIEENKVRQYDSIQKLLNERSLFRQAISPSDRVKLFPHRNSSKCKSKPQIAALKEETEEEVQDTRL

CCCCC(F)(F)[C@@]1(O)CC[C@H]2[C@@H](CC(=O)[C@@H]2CCCCCCC(=O)O)O1 [lubiprostone]
patients in whom the drug was effective [1]: ~13%

Nc1ccc([N+](=O)[O-])cc1-c1nc2cc(Cl)ccc2n(Cc2ccccc2)c1=O [CFTRact-J135, 3-(2-Amino-5-nitrophenyl)-1-benzyl-6-chloroquinoxalin-2(1H)-one]
EC50 (human wildtype CFTR [2]; EC50 for CFTR activation, wild-type CFTR): ~300 nM
extent of CFTR activation (Isc) (human wildtype CFTR [2]): fully activated CFTR
EC50 (human wildtype CFTR [3]): 110 nM

C[C@@H]1NC(=O)[C@@H]2CCCN2C(=O)[C@H](CC(N)=O)NC(=O)[C@@H]2CSSC[C@H](N)C(=O)N[C@H]3CSSC[C@H](NC1=O)C(=O)N[C@@H]([C@@H](C)O)C(=O)NCC(=O)N[C@H](C(=O)N[C@@H](Cc1ccc(O)cc1)C(=O)O)CSSC[C@H](NC(=O)[C@H](Cc1ccc(O)cc1)NC(=O)[C@H](CCC(=O)O)NC3=O)C(=O)N2 [linaclotide, reference compound] (H-CCEYCCNPACTGCY-OH; disulfide 1-6, 2-10, 5-13)
stool output normalization as % of the maximal CFTRact-J027 response (loperamide-treated mice; oral 0.5 mg/kg, loperamide-treated mice): 35%
patients in whom the drug was effective [1]: ~20%

CCN(CC)c1nc(Nc2ccccc2)nc(OC(C(F)(F)F)C(F)(F)F)n1 [CFTRact-K089]
corneal / ocular surface epithelial disruption after LGE (LGE BALB/c mice; 0.1 nmol three times daily): fully prevented the corneal epithelial disruption; also recorded: prevented ocular surface epithelial disruption at all time points
tear volume after LGE (LGE BALB/c mice; 0.1 nmol topically three times daily): restored tear secretion to basal levels; also recorded: maintained basal tear volume
LG score change (LGE BALB/c mice; 12-point scale, by Day 14, 0.1 nmol three times daily): −0.6±0.6
hyperpolarization in ocular surface potential difference [4]: ~8.5 mV
change in ocular surface PD [4]: large hyperpolarizations
CFTR activation (% Vmax) (human wildtype CFTR [2]; 100% = 20 μM forskolin): ~50 % Vmax
extent of CFTR activation (Isc) (human wildtype CFTR [2]): fully activated CFTR
EC50 (human wildtype CFTR [2]; read-out: EC50 for CFTR activation, wild-type CFTR): ~250 nM
in vitro cytotoxicity (FRT cells): no appreciable in vitro cytotoxicity
systemic absorption after topical delivery ([5]; topical): without detectable systemic absorption
amount in mouse blood, brain, liver and kidney (limit of detection) ([5]; two weeks of three times per day topical dosing): < 10 fmol
amount recovered from tear washes at six hours ([6]; 0.1 nmol (2 μL, 50 μM) instilled): 0.011 ± 0.004 pmol
duration of predicted therapeutic tear fluid levels ([6]; 0.1 nmol single dose): therapeutic levels for at least six hours
LG staining of cornea and conjunctiva [7]: no corneal or conjunctival epithelial disruption
ocular toxicity (slit-lamp evaluation) ([7]; topical three times daily, two weeks): no signs of ocular toxicity
tear fluid secretion in CF mice (tear fluid secretion; CF mice): no effect in CF mice
tear fluid secretion after single topical dose (tear fluid secretion; [8]): doubled basal tear secretion for four hours; also recorded: increased tear fluid secretion by approximately two-fold for at least four hours

CC(C)Cn1c(=O)n(C)c(=O)c2[nH]cnc21 [IBMX, 3-isobutyl-1-methylxanthine, reference compound]
tear fluid secretion after single topical dose (tear fluid secretion; [8]): substantially increased basal tear secretion at 30 min, but these effects were transient and undetectable after 2 hours

CC(C)(C)c1cc(C(C)(C)C)c(NC(=O)c2c[nH]c3ccccc3c2=O)cc1O [VX-770, reference compound]
change in ocular surface PD [4]: minimal changes in ocular surface PD
activity against wild-type CFTR (human wildtype CFTR [2]): relatively weak activity
maximal CFTR activation (human wildtype CFTR [2]; wild-type CFTR): 15%
tear fluid secretion after single topical dose (tear fluid secretion; [8]): little tear secretion

cholera toxin [reference compound]
tear fluid secretion after single topical dose (tear fluid secretion; mouse, in vivo): substantially increased basal tear secretion at 30 min, but these effects were transient and undetectable after 2 hours

Cn1c(=O)c(-c2cc([N+](=O)[O-])ccc2N)nc2ccccc21 [inactive chemical analog of CFTRact-J027, reference compound]
efficacy on stool parameters of inactive analog (loperamide-treated mice; loperamide-treated wildtype mice): nor was an inactive chemical analog of CFTRact-J027 effective in wildtype mice

Nc1ccc(Br)cc1-c1nc2ccccc2n(Cc2ccccc2)c1=O [CFTRact-J134, 3-(2-Amino-5-bromophenyl)-1-benzylquinoxalin-2(1H)-one]
EC50 (human wildtype CFTR [3]): 310 nM

Nc1ccc([N+](=O)[O-])cc1-c1nc2ccccc2n(Cc2ccc(Br)cc2)c1=O [CFTRact-J102, 3-(2-Amino-5-nitrophenyl)-1-(4-bromobenzyl)quinoxalin-2(1H)-one]
EC50 (human wildtype CFTR [3]): > 25000 nM
